Earlier results as cited in patent publication US12064440B2, “Ophthalmic gel compositions of bimatoprost and timolol and associated methods” (Somerset Therapeutics, LLC, priority 2022, dated 2024).

Conditions: under certain conditions

| Compound | active pharmaceutical ingredient (API) stability |
| --- | --- |
| CCNC(=O)CCC/C=C\C[C@@H]1[C@@H](/C=C/[C@@H](O)CCc2ccccc2)[C@H](O)C[C@@H]1O [bimatoprost, (Z)-7-[(1R, 2R, 3R, 5S)-3,5-Dihydroxy-2-[(1E, 3S)-3-hydroxy-5-phenyl-1-pentenyl]cyclopentyl]-5-N-ethylheptenamid] | remain stable |
| CC(C)OC(=O)CCC/C=C\C[C@@H]1[C@@H](CC[C@@H](O)CCc2ccccc2)[C@H](O)C[C@@H]1O [latanoprost] | degradation |
| CC(C)OC(=O)CCC/C=C\C[C@@H]1[C@@H](/C=C/[C@@H](O)COc2cccc(C(F)(F)F)c2)[C@H](O)C[C@@H]1O [travoprost] | degradation |
